{"source": "patent US8524674B2", "about": "“Method of improving the conditioned reflex habit, the muscle tonus, or the motion coordination of a patient after suffering trauma to the brain cortex” (Obschestvo S Ogranichennoi Otvetstvennostyu “Sia Peptides”, priority 2006, dated 2013)", "key": {"white mongrel male mice": {"system": "white mongrel male mice", "conditions": "mouse, in vivo", "description": "The study of acute toxicity was performed on 72 white mongrel male mice with body weight of 20-22 g. The animals were randomly subdivided into 6 equal groups. The substance was administered to the animals once, intramuscularly, in the doses of 1 mg/kg, 2 mg/kg, 3 mg/kg, 4 mg/kg, 5 mg/kg in 0.25 ml of sterile 0.9% NaCl solution. The control animals received 0.9% NaCl solution in the same volume."}, "white mongrel male rats": {"system": "white mongrel male rats", "assay": "Study of sub-acute toxicity, 90 days", "assay_type": "in vivo", "conditions": "long-term administration, doses exceeding the therapeutic one by 100-1000 times", "description": "The study of sub-acute toxicity was performed on 65 white mongrel male rats with body weight of 160-210 g. […] Morphology and properties of the animals' peripheral blood were studied before the administration of the substance, as well as on the 30th, 60th and 90th day after the beginning of the administration. Upon completion of the experiment biochemical and coagulologic indices of the blood were also evaluated."}, "brain cortex explants": {"system": "brain cortex explants", "assay": "Development of brain cortex explants (area index)", "assay_type": "cell-based, Wistar rats", "description": "This study was performed on 32 fragments of brain cortex from Wistar rats with body weight of 150-200 g. Nutritional medium for explants cultivation consisted of 35% Eagle's solution, 25% calf fetal serum, 35% Hank's solution, 5% chicken embryonic extract, with the addition of glucose (0.6%), insulin (0.5 units/ml), penicillin (100 units/ml), glutamine (2 mM). […] Peptide H-Glu-Asp-Arg-OH was added into the medium, reaching ultimate concentration of 1, 10 and 100 ng/ml.\nArea index (AI), i.e. the ratio of total explant area together with the growth zone to the initial area of brain cortex fragment served as the criterion of biologic activity. The statistical significance of the difference between the compared mean AI values was evaluated using Student's t-criterion. AI values were expressed in percent, control AI values being considered as 100%."}, "[1]": {"system": "rats with heavy compression cranial trauma", "assay": "Reparative processes in rat brain cortex after acute heavy cranial trauma (CAAR, rotating rod)", "assay_type": "in vivo, white mongrel rats", "description": "The effect of peptide H-Glu-Asp-Arg-OH on reparative processes in the brain was estimated on the pattern of acute heavy cranial trauma. The dynamics of central nervous system functions restoration were identified by testing motion coordination and muscle tonus of the animals, as well as their ability to learning and reproducing the conditioned reflex habit.\n24 white mongrel rats were subjected to heavy compression cranial trauma from a falling leaden bob.\nThe estimation of the rats' ability to learn and reproduce the habits was performed using the test of conditioned active avoidance reflex (CAAR). Muscle tonus and motion coordination were tested by rotating the rats on a rod with increasing speed and measuring the time of their holding on to the rod."}, "[2]": {"system": "rats with spinal cord trauma", "assay": "Morphologic alterations in the central nervous system in spinal cord trauma", "assay_type": "in vivo, Wistar rats", "description": "The study was performed on mature Wistar rats of both sexes with body weight of 180-200 g. The experimental group of 27 rats was subjected to spinal cord trauma.\nThe animals were injured in the lumbar segment of the spinal cord according to the following method. The lateral surfaces of anesthetized rats' vertebrae on the level of the last rib were compressed through the skin using dressing forceps with a force of 15 kg on the working surfaces. In 24 hours after the trauma the surviving animals were subdivided into 2 groups.\nThe rats of the second group (control) received sterile physiological saline solution in the same volume.\nNeurohistological studies were performed in the animals of both groups on the 30th day of the experiment. For this purpose spinal cord ganglia were taken from the spots of injury and above the injured spots, as well as lumbar and cervical segments of the spinal cord and motor cortex fragments and pyramid tracts of the brain. Neurohistological studies were performed using electronic and luminous microscopy.\nThe samples intended for luminous microscopy were fixed in 96% spirit and 10% formalin, then packed into celloidin with subsequent staining with hematoxylin-eosine, as well as staining by Nissle, Van Gison, Weigert, Spielmeyer. The samples were fixed and cut in accordance with conventional methods of histological processing and staining of the samples.\nThe samples intended for electronic microscopy were fixed by 2% osmic acid with cacodylate buffer, then packed in Epon 812 and contrasted in lead […] by Reynolds. The preliminary evaluation of the samples was performed using semifine sections. Ultrafine sections were studied using electronic microscope UEM-100SKh."}, "[3]": {"system": "rat brain cortex in hypoxia", "assay": "Free radical oxidation reactions in rat brain cortex in hypoxia", "assay_type": "in vivo, white mongrel rats", "description": "The study was performed on 18 white mongrel rats. Peptide H-Glu-Asp-Arg-OH was administered to the animals intraperitoneally, in the dose of 1 μg in 1.0 ml of sterile physiological 0.9% NaCl solution once a day for 10 days. 24 hours after the completion of peptide administration the animals were subjected to hypoxic hypoxia. Hypoxia was modeled in the altitude chamber of flow-ejector type, the atmosphere pressure in the chamber being 0.029 MPa, which corresponds to the altitude of 9000 m above sea level. Compression and decompression rate made 0.005 MPa per minute. Carbon dioxide and moisture absorbent was present in the altitude chamber. The animals were held in the chamber for 3 hours in the conditions of free conduct and under constant observation.\nThe intensity of peroxide lipid oxidation (POL) was estimated judging by the level of initial POL products, i.e. diene conjugates, and terminal products, i.e. Schiff's bases, playing a significant role in neurons damage. The level of protein peroxidation was estimated by the level of carbonyl derivative amino acids in proteins after interaction with 2,4-dinitrophenylhydrazine."}, "[4]": {"system": "isolated neurons of Astacus leptodactilus crayfish", "assay": "Life span of isolated crayfish neurons", "assay_type": "cell-based", "conditions": "10 μg/ml", "description": "Isolated neurons of Astacus leptodactilus crayfish for the in vitro study of peptide H-Glu-Asp-Arg-OH on their life span were extracted by axotomia, being regarded as a model of cell death by apoptosis.\nStretching receptor neurons of a crayfish closely resemble central neurons of vertebrals by their electrophysiological, biological and structure properties. They generate spikes with nearly constant rate during 10-15 hours. Two symmetrical neurons (control and experimental) extracted from the abdominal segment were placed into 2 ml chambers filled with Harreveld's solution. Neuronal potentials were registered extracellularly on the axons by fastened glass pipette electrodes, then amplified and recorded using H-338 recorder. At the same time the frequency of action potentials was registered using two-channel analog frequency meter and H-339 data recorders. In the beginning of the experiment impulse frequency of experimental and control neurons was set on the level of 10-15 Hz by the stretching of the muscle. After 1 hour of stabile spike generation with constant rate peptide H-Glu-Asp-Arg-OH in the concentration of 10 μg/ml was added into the experimental chamber. The activity of the neurons was constantly recorded before the spontaneous termination of spikes generation. Life span of neurons was compared for each couple. Altogether 10 couples of neurons were used."}, "[5]": {"system": "patients with remote consequences of cranial trauma", "assay": "Efficacy in patients with consequences of cranial trauma (clinical result, corrective test, EEG alpha index)", "assay_type": "in vivo", "conditions": "patients of the main groups after treatment", "description": "This study was performed on 25 patients aged 31-60 with remote consequences of cranial trauma, who were randomly subdivided into 2 groups. These patients sustained cranial traumas from 1 to 10 years ago. Main group patients were subdivided into 3 groups depending on the severity of their cranial trauma. Patients with the most severe consequences of cranial trauma received the pharmaceutical composition containing peptide H-Glu-Asp-Arg-OH once a day, intramuscularly, in the dose of 5.0 mg in 1 ml of sterile 0.9% NaCl solution for 10 days. Main group patients with cranial trauma consequences of intermediate severity were treated with the pharmaceutical composition containing peptide H-Glu-Asp-Arg-OH once a day, intramuscularly, in the dose of 10.0 μg in 1 ml of sterile 0.9% NaCl solution for 10 days. Main group patients with mild consequences of cranial trauma received the pharmaceutical composition containing peptide H-Glu-Asp-Arg-OH once a day, intramuscularly, in the dose of 1.0 μg in 1.0 ml of sterile 0.9% NaCl solution for 10 days.\nThe efficacy of the pharmaceutical composition containing H-Glu-Asp-Arg-OH peptide was estimated judging by the effect on integral function of the brain, i.e., attention, and on bioelectric activity of the brain using the corrective test and electroencephalogram.\nThe evaluation of the effect of pharmaceutical composition containing peptide H-Glu-Asp-Arg-OH on bioelectric activity of the brain was performed by means of calculating the alpha index before and after the treatment."}, "male guinea pigs [6]": {"system": "male guinea pigs", "conditions": "guinea pig, in vivo", "experimental": "(§1) The studies of chronic toxicity were conducted for 6 months, basing on the term of recommended clinical administration of the substance, on 84 male guinea pigs with body weight of 270-310 g. Experimental animals received the peptide daily, once a day, intramuscularly, for 6 months in the doses of 1 μg/kg, 0.1 mg/kg, 1 mg/kg in 0.5 ml of sterile 0.9% NaCl solution. Control animals received sterile 0.9% NaCl solution in the same volume and by the same schedule. Traditional methods were used for the evaluation of the following indices of the animals' peripheral blood: the quantity of erythrocytes, hemoglobin, reticulocytes, thrombocytes, leukocytes, leukocyte formula, erythrocyte sedimentation rate (ESR), erythrocyte resistance. Alongside with that, the content of total protein in the serum was identified using Lowry's method, as well as potassium and sodium content using the method of plasma spectrophotometry. After the completion of the experiment pathomorphologic studies of animal brain and spinal cord, spinal cord ganglia, thyroid gland, parathyroid glands, adrenal glands, testis, pituitary body, heart, lungs, aorta, liver, kidneys, urinary bladder, pancreas, stomach, small intestine, large intestine, thymus, spleen, lymph nodes and bone marrow were performed."}, "male guinea pigs [7]": {"system": "male guinea pigs", "assay": "Study of chronic toxicity, 6 months", "conditions": "guinea pig, in vivo", "experimental": "as §1"}, "[8]": {"conditions": "10 μg/kg intramuscularly daily for 10 days, 30th day"}, "[9]": {"conditions": "1 μg intraperitoneally once a day for 10 days, then hypoxia"}}, "note": "Values joined by “and” are separate entries in the source; they are usually repeats but may differ in a detail not shown here. Equal entries are not always repeated. Residues, ends and D or L forms follow the SMILES beside them."}
{"smiles": "N=C(N)NCCC[C@H](NC(=O)[C@H](CC(=O)O)NC(=O)[C@@H](N)CCC(=O)O)C(=O)O", "note": "[peptide H-Glu-Asp-Arg-OH, glutamyl-aspartyl-arginine] (H-Glu-Asp-Arg-OH)", "values": [{"measurement": "toxic reactions", "setting": "white mongrel male mice", "result": "does not cause toxic reactions"}, {"measurement": "side effects, subacute toxicity", "setting": "white mongrel male rats", "result": "absence of any side effects"}, {"measurement": "Area index (AI) growth as compared to the control", "setting": "brain cortex explants; 10 ng/ml, 3rd day of cultivation, statistically significant", "result": 37, "unit": "%"}, {"measurement": "neurites stimulation of cortex explants", "setting": "brain cortex explants; after 7 days of cultivating, same concentrations", "result": "same effects of neurites stimulation"}, {"measurement": "time of holding on to the rod relative to the control (rotating rod test)", "setting": "[1]; 48 hours after the trauma, 10 μg/kg intramuscularly", "result": "more than 2 times"}, {"measurement": "number of animals capable of learning relative to the control", "setting": "[1]; 96 hours after the trauma, 10 μg/kg intramuscularly, CAAR test", "result": 2, "unit": "times"}, {"measurement": "indices of the animals' learning ability", "setting": "[1]; by the 14th day after the trauma", "result": "close to normal values"}, {"measurement": "indices of learning ability", "setting": "[1]; in 30 days, 10 μg/kg intramuscularly", "result": "higher than in the control"}, {"measurement": "alterations in nerve cells and outgrowths of upper spinal cord segments", "setting": "[2]; [8]", "result": "less pronounced"}, {"measurement": "neuronal cell cytoplasm, electronic microscopy", "setting": "[2]; [8]", "result": "signs of restoration in the neuronal cells cytoplasm"}, {"measurement": "type of neuronal alterations in the spinal cord at the injury spot", "setting": "[2]; 10 μg/kg intramuscularly daily for 10 days, 30th day, luminous microscopy, control showed much more heavy and ischemic alterations", "result": "mainly “primarily irritated” cells"}, {"measurement": "effect on spinal cord neurons regeneration", "setting": "[2]; animals with spinal cord trauma", "result": "stimulating effect on spinal cord neurons regeneration"}, {"measurement": "Diene conjugates", "setting": "[3]; [9]", "result": "28.57 ± 1.84 nmole/g of tissue"}, {"measurement": "Level of proteins peroxidation", "setting": "[3]; [9]", "result": "4.68 ± 0.07 μmole/mg of protein"}, {"measurement": "Schiff's bases", "setting": "[3]; [9]", "result": "255.4 ± 26.8 conv. units/g of tissue"}, {"measurement": "change in Schiff's bases content", "setting": "[3]; hypoxia, vs control", "result": "tendency towards a decrease"}, {"measurement": "change in the level of diene conjugates", "setting": "[3]; hypoxia, vs control", "result": "statistically significant decrease"}, {"measurement": "protein peroxidation", "setting": "[3]; hypoxia, vs control", "result": "inhibited protein peroxidation"}, {"measurement": "Life span of isolated crayfish neurons", "setting": "[4]; control 11.9 hours", "result": "13.7 h and 13.7 ± 0.2 h"}, {"measurement": "prolongation of the life span of isolated neurons", "setting": "[4]; vs control", "result": 15, "unit": "%"}, {"measurement": "Number of mistakes (corrective test)", "setting": "[5]; before treatment 12.6 ± 1.3", "result": "6.4 ± 1.1"}, {"measurement": "Alpha index (EEG)", "setting": "[5]; before treatment 35.7 ± 4.6", "result": "47.9 ± 3.1"}, {"measurement": "Number of registered signs (corrective test)", "setting": "[5]; before treatment 1519.1 ± 141.7", "result": "2429.6 ± 105.3"}, {"measurement": "changes in blood morphology and biochemical indices", "setting": "male guinea pigs [6]", "result": "no statistically significant changes"}, {"measurement": "side effects, chronic toxicity", "setting": "male guinea pigs [6]", "result": "absence of any side effects"}, {"measurement": "pathologic alterations in the organism (general status, blood indices, organ morphology, cardiovascular, respiratory, liver and kidney functions)", "setting": "male guinea pigs [7]", "result": "no pathologic alterations"}]}
